Experimental data: PubChem BioAssay (NCI)
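Method: 48-hour compound exposure of cells in 96-well plates, five concentrations, linear interpolation of endpoints. TGI denotes the concentration required for complete inhibition of growth.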

Tests used:
Assay in all cases: inhibition of tumour cell growth, NCI panel, 48 h
786-0 renal = tested on: 786-0 renal
A498 renal = tested on: A498 renal
A549 NSCLC = tested on: A549 NSCLC
ACHN renal = tested on: ACHN renal
BT-549 breast = tested on: BT-549 breast
CAKI-1 renal = tested on: CAKI-1 renal
CCRF-CEM leukemia = tested on: CCRF-CEM leukemia
COLO 205 colon = tested on: COLO 205 colon
DU-145 prostate = tested on: DU-145 prostate
EKVX NSCLC = tested on: EKVX NSCLC
HCC-2998 colon = tested on: HCC-2998 colon
HCT-116 colon = tested on: HCT-116 colon
HCT-15 colon = tested on: HCT-15 colon
HL-60(TB) leukemia = tested on: HL-60(TB) leukemia
HOP-62 NSCLC = tested on: HOP-62 NSCLC
HOP-92 NSCLC = tested on: HOP-92 NSCLC
HS 578T breast = tested on: HS 578T breast
HT29 colon = tested on: HT29 colon
IGROV1 ovarian = tested on: IGROV1 ovarian
K-562 leukemia = tested on: K-562 leukemia
KM12 colon = tested on: KM12 colon
LOX IMVI melanoma = tested on: LOX IMVI melanoma
M14 melanoma = tested on: M14 melanoma
MALME-3M melanoma = tested on: MALME-3M melanoma
MCF7 breast = tested on: MCF7 breast
MDA-MB-231 breast = tested on: MDA-MB-231 breast
MDA-MB-435 = tested on: MDA-MB-435
MDA-N = tested on: MDA-N
MOLT-4 leukemia = tested on: MOLT-4 leukemia
NCI-H226 lung = tested on: NCI-H226 lung
NCI-H23 lung = tested on: NCI-H23 lung
NCI-H460 lung = tested on: NCI-H460 lung
NCI-H522 lung = tested on: NCI-H522 lung
NCI/ADR-RES ovarian = tested on: NCI/ADR-RES ovarian
OVCAR-3 ovarian = tested on: OVCAR-3 ovarian
OVCAR-4 ovarian = tested on: OVCAR-4 ovarian
OVCAR-5 ovarian = tested on: OVCAR-5 ovarian
OVCAR-8 ovarian = tested on: OVCAR-8 ovarian
PC-3 prostate = tested on: PC-3 prostate
RPMI-8226 leukemia = tested on: RPMI-8226 leukemia
RXF 393 renal = tested on: RXF 393 renal
SF-268 CNS = tested on: SF-268 CNS
SF-539 CNS = tested on: SF-539 CNS
SK-MEL-2 melanoma = tested on: SK-MEL-2 melanoma
SK-MEL-28 melanoma = tested on: SK-MEL-28 melanoma
SK-MEL-5 melanoma = tested on: SK-MEL-5 melanoma
SK-OV-3 ovarian = tested on: SK-OV-3 ovarian
SN12C renal = tested on: SN12C renal
SNB-19 CNS = tested on: SNB-19 CNS
SNB-75 CNS = tested on: SNB-75 CNS
SR leukemia = tested on: SR leukemia
SW-620 colon = tested on: SW-620 colon
T-47D breast = tested on: T-47D breast
TK-10 renal = tested on: TK-10 renal
U251 CNS = tested on: U251 CNS
UACC-257 melanoma = tested on: UACC-257 melanoma
UACC-62 melanoma = tested on: UACC-62 melanoma
UO-31 renal = tested on: UO-31 renal

Measured: TGI

Cc1cc(N)ccc1C=O
> 100 µM: 786-0 renal | A498 renal | A549 NSCLC | ACHN renal | BT-549 breast | CAKI-1 renal | CCRF-CEM leukemia | COLO 205 colon | DU-145 prostate | EKVX NSCLC | HCC-2998 colon | HCT-116 colon | HCT-15 colon | HL-60(TB) leukemia | HOP-62 NSCLC | HOP-92 NSCLC | HS 578T breast | HT29 colon | IGROV1 ovarian | K-562 leukemia | KM12 colon | LOX IMVI melanoma | M14 melanoma | MALME-3M melanoma | MCF7 breast | MDA-MB-231 breast | MDA-MB-435 | MDA-N | MOLT-4 leukemia | NCI-H226 lung | NCI-H23 lung | NCI-H460 lung | NCI-H522 lung | NCI/ADR-RES ovarian | OVCAR-3 ovarian | OVCAR-4 ovarian | OVCAR-5 ovarian | OVCAR-8 ovarian | PC-3 prostate | RPMI-8226 leukemia | RXF 393 renal | SF-268 CNS | SF-539 CNS | SK-MEL-2 melanoma | SK-MEL-28 melanoma | SK-MEL-5 melanoma | SK-OV-3 ovarian | SN12C renal | SNB-19 CNS | SNB-75 CNS | SR leukemia | SW-620 colon | T-47D breast | TK-10 renal | U251 CNS | UACC-257 melanoma | UACC-62 melanoma | UO-31 renal
